Results published in US20120035187A1 (priority 2009, published 2012).

What was measured:
[1] = test system: PC12-HS cells; test: Evaluation B: neurite-outgrowth action in presence of NGF; format: cell-based, rat; settings: for Percentage (%) of cells with neurite outgrowth: 50 μl/well of 2 μg/ml test solution + NGF final 5 ng/ml; for Percentage (%) of cells with neurite outgrowth / Evaluation B: Neurite-outgrowth action: 3 days; for Evaluation B: Neurite-outgrowth action: 50 μl of 400 ng/ml test sample solution per well + NGF final 5 ng/ml
[2] = test system: PC12-HS cells; test: Evaluation A: neurocyte (cell)-growth-promoting action, ALAMAR BLUE; format: cell-based, rat
Description: Then, the effects of test samples were judged as follows:
The relative value of 140 to 199: Equivalent effect to that of NK-4, symbol (∘); The relative value of 200 or higher: Stronger effect than that of NK-4, symbol ([…]). • The results are in Table 6.
The relative fluorescent intensity of each well was determined by using the fluorescent intensity of each well with cells, which had been cultured by admixing with D-MEM medium containing 10% by volume of FBS without any of the compounds, and the intensity of the resulting culture was regarded as 100%. The results are expressed as cell survival percentages (%) in Table 9. […]
The test was conducted twice for each test sample in a triplicate manner and the data were averaged.
Seven compounds as in Table 17, NK-234, NK-26, NK-9815, NK-9694, NK-28 and NK-147 as well as NK-4, were each dissolved in DMSO to give a concentration of 5 mg/ml. […] The test was conducted twice for each test sample in a triplicate manner and the data were averaged.

[3] = 100 μl/well of 100 ng/ml test solution, 3 days, control = 100
[4] = compound concentration 80 ng/ml
[5] = compound concentration 400 ng/ml
[6] = compound concentration 2000 ng/ml
[7] = compound concentration 10000 ng/ml
[8] = compound concentration 25 ng/ml
[9] = compound concentration 50 ng/ml
[10] = compound concentration 100 ng/ml
[11] = compound concentration 200 ng/ml

In the case of `CC1=CS\C(=C/C=C(\C=C\c2scc(C)[n+]2C)c2scc(C)[n+]2C)N1C.[I-].[I-]` [NK-2], the “Percentage (%) of cells with neurite outgrowth” value (shortened to “Percentage (%) of cells”) [1] is reported as 4% and the “Action of enhancing cell growth (%)” value [2, 3] is reported as 126%.
For `CCN1C(C)=CS\C1=C/C=C(\C=C\c1scc(C)[n+]1CC)c1scc(C)[n+]1CC.[I-].[I-]` [NK-13], the “Percentage (%) of cells” value [1] was 5%, the “Action on neurite outgrowth (%)” value [1, 4] was 10< % and the “Action on neurite outgrowth (%)” value [1, 5] was 10< %. For the same compound, the “Action on neurite outgrowth (%)” value [1, 6] was 10< %, the “Action on neurite outgrowth (%)” value [1, 7] was 10< % and the “Action of enhancing cell growth (%)” value [2, 3] was 125%. The “Action of enhancing cell growth (%)” value [2, 8] was 126 ± 12%, the “Action of enhancing cell growth (%)” value [2, 9] was 140 ± 7% and the “Action of enhancing cell growth (%)” value [2, 10] was 231 ± 84%. The “Action of enhancing cell growth (%)” value [2, 11] was 209 ± 24%.
In the case of `CCCCN1C(C)=CS\C1=C/C=C(\C=C\c1scc(C)[n+]1CCCC)c1scc(C)[n+]1CCCC.[I-].[I-]` [NK-24], the “Percentage (%) of cells” value [1] is reported as 33% and the “Action of enhancing cell growth (%)” value [2, 3] is reported as 581%.
In the case of `CCCCCCCCCCCCN1C(C)=CS\C1=C/C=C(/C=C/c1scc(C)[n+]1CCCCCCCCCCCC)c1scc(C)[n+]1CCCCCCCCCCCC.[I-].[I-]` [NK-32], the “Percentage (%) of cells” value [1] is reported as 16% and the “Action of enhancing cell growth (%)” value [2, 3] is reported as 199%.
With `CCCCN1C(C)=CS\C1=C/C=C(\C=C\c1scc(C)[n+]1CCCC)c1scc(C)[n+]1CCCC.[Cl-].[Cl-]` [NK-56] the “Percentage (%) of cells” value [1] was 28%.
With `CCN1C(C)=CS/C1=C\C=C\c1scc(C)[n+]1CC` [NK-67] the “Evaluation B: Neurite-outgrowth action” value [1] was “∘ (The test sample with a neurite outgrowth rate of 30% or higher was judged to be equivalent or more (∘) compared with NK-4)”.
`CCN1/C(=C/C=C/c2oc3ccccc3[n+]2CC)Oc2ccccc21.[I-]` [NK-85] was tested, and the “Evaluation B: Neurite-outgrowth action” value [1] was “∘ (The test sample with a neurite outgrowth rate of 30% or higher was judged to be equivalent or more (∘) compared with NK-4)”.
In the case of `CN1/C(=C/C=C/c2oc3ccccc3[n+]2C)Oc2ccccc21.[I-]` [NK-86], the “Evaluation B: Neurite-outgrowth action” value [1] is reported as “∘ (The test sample with a neurite outgrowth rate of 30% or higher was judged to be equivalent or more (∘) compared with NK-4)”.
In the case of `CN1/C(=C/c2oc3ccccc3[n+]2C)Oc2ccccc21.[I-]` [NK-87], the “Evaluation B: Neurite-outgrowth action” value [1] is reported as “∘ (The test sample with a neurite outgrowth rate of 30% or higher was judged to be equivalent or more (∘) compared with NK-4)”.
`CN1/C(=C/C=C/C=C/C=C/C2=[N+](C)c3ccccc3C2(C)C)C(C)(C)c2ccccc21.[I-]` [NK-125] was tested, and the “Evaluation B: Neurite-outgrowth action” value [1] was “∘ (The test sample with a neurite outgrowth rate of 30% or higher was judged to be equivalent or more (∘) compared with NK-4)”.
In the case of `CCN1/C(=C/C=C/C=C/c2sc3ccccc3[n+]2CC)Sc2ccccc21.[I-]` [NK-136], the “Evaluation B: Neurite-outgrowth action” value [1] is reported as “∘ (The test sample with a neurite outgrowth rate of 30% or higher was judged to be equivalent or more (∘) compared with NK-4)”.
`CCCCCCC[n+]1c(/C=C/c2ccc(N(C)C)cc2)ccc2ccccc21.[I-]` [NK-231] was tested, and the “Evaluation B: Neurite-outgrowth action” value [1] was “∘ (The test sample with a neurite outgrowth rate of 30% or higher was judged to be equivalent or more (∘) compared with NK-4)”.
For `CCCN1C(C)=CS\C1=C/C=C(\C=C\c1scc(C)[n+]1CCC)c1scc(C)[n+]1CCC.[I-].[I-]` [NK-237], the “Percentage (%) of cells” value [1] was 16% and the “Action of enhancing cell growth (%)” value [2, 3] was 212%.
`CCCCCCCN1C(C)=CS/C1=C\c1scc(C)[n+]1CCCCCCC.[I-]` [NK-266] was tested, and the “Evaluation B: Neurite-outgrowth action” value [1] was “∘ (The test sample with a neurite outgrowth rate of 30% or higher was judged to be equivalent or more (∘) compared with NK-4)”.
In the case of `CCN1/C(=C/c2cc[n+](CC)c3ccccc23)C=Cc2ccccc21.[I-]` [NK-276], the “Evaluation B: Neurite-outgrowth action” value [1] is reported as “∘ (The test sample with a neurite outgrowth rate of 30% or higher was judged to be equivalent or more (∘) compared with NK-4)”.
`CCCCCCC[n+]1c(C)csc1/C=C/c1ccc(N(C)C)cc1.[Cl-]` [NK-279] was tested, and the “Evaluation B: Neurite-outgrowth action” value [1] was “∘ (The test sample with a neurite outgrowth rate of 30% or higher was judged to be equivalent or more (∘) compared with NK-4)”.
For `CC(C)CC[n+]1ccc(/C=C/c2ccc(N(C)C)cc2)c2ccccc21.[I-]` [NK-282], the “Evaluation B: Neurite-outgrowth action” value [1] was “∘ (The test sample with a neurite outgrowth rate of 30% or higher was judged to be equivalent or more (∘) compared with NK-4)”.
For `CC[n+]1c(/C=C/C=C/c2ccc(N(C)C)cc2)sc2ccccc21.[I-]` [NK-375], the “Evaluation B: Neurite-outgrowth action” value [1] was “∘ (The test sample with a neurite outgrowth rate of 30% or higher was judged to be equivalent or more (∘) compared with NK-4)”.
For `CCN1/C(=C/C=C/c2sc3ccc4ccccc4c3[n+]2CC)Sc2ccc3ccccc3c21.[I-]` [NK-382], the “Evaluation B: Neurite-outgrowth action” value [1] was “∘ (The test sample with a neurite outgrowth rate of 30% or higher was judged to be equivalent or more (∘) compared with NK-4)”.
For `CCCCCCN1C(C)=CS\C1=C/C=C(\C=C\c1scc(C)[n+]1CCCCCC)c1scc(C)[n+]1CCCCCC.[I-].[I-]` [NK-392], the “Percentage (%) of cells” value [1] was 44%, the “Action on neurite outgrowth (%)” value [1, 4] was 44 ± 12% and the “Action on neurite outgrowth (%)” value [1, 5] was 48 ± 2%. The “Action on neurite outgrowth (%)” value [1, 6] was 76 ± 8%, the “Action on neurite outgrowth (%)” value [1, 7] was 81 ± 10% and the “Action of enhancing cell growth (%)” value [2, 3] was 560%. For the same compound, the “Action of enhancing cell growth (%)” value [2, 8] was 349 ± 63%, the “Action of enhancing cell growth (%)” value [2, 9] was 601 ± 93% and the “Action of enhancing cell growth (%)” value [2, 10] was 607 ± 71%. For the same compound, the “Action of enhancing cell growth (%)” value [2, 11] was 460 ± 41%.
`CCCCN1C(C)=CS/C1=C\c1scc(C)[n+]1CCCC.[I-]` [NK-399] was tested, and the “Evaluation B: Neurite-outgrowth action” value [1] was “∘ (The test sample with a neurite outgrowth rate of 30% or higher was judged to be equivalent or more (∘) compared with NK-4)”.
In the case of `CCCC[n+]1c(C=Cc2ccc(N(C)C)cc2)sc2ccccc21.[I-]` [NK-490], the “Evaluation B: Neurite-outgrowth action” value [1] is reported as “∘ (The test sample with a neurite outgrowth rate of 30% or higher was judged to be equivalent or more (∘) compared with NK-4)”.
With `CC[n+]1ccc(/C=C/C=C/c2ccc(N(C)C)cc2)c2ccccc21.[I-]` [NK-526] the “Evaluation B: Neurite-outgrowth action” value [1] was “∘ (The test sample with a neurite outgrowth rate of 30% or higher was judged to be equivalent or more (∘) compared with NK-4)”.
`Cc1ccc2c(c1)S/C(=C\c1sc3cc(C)ccc3[n+]1C)N2C.[I-]` [NK-594] was tested, and the “Evaluation B: Neurite-outgrowth action” value [1] was “∘ (The test sample with a neurite outgrowth rate of 30% or higher was judged to be equivalent or more (∘) compared with NK-4)”.
For `CC[n+]1ccc(/C=C/c2ccc3c(c2)OCO3)c2ccccc21.[I-]` [NK-629], the “Evaluation B: Neurite-outgrowth action” value [1] was “∘ (The test sample with a neurite outgrowth rate of 30% or higher was judged to be equivalent or more (∘) compared with NK-4)”.
With `CCN1/C(=C/C=C/c2cc[n+](CC)c3ccccc23)Oc2ccccc21.[I-]` [NK-741] the “Evaluation B: Neurite-outgrowth action” value [1] was “∘ (The test sample with a neurite outgrowth rate of 30% or higher was judged to be equivalent or more (∘) compared with NK-4)”.
For `CCN1/C(=C/c2cc[n+](CC)c3ccccc23)Sc2ccccc21.[I-]` [NK-750], the “Evaluation B: Neurite-outgrowth action” value [1] was “∘ (The test sample with a neurite outgrowth rate of 30% or higher was judged to be equivalent or more (∘) compared with NK-4)”.
In the case of `CCN1/C(=C/c2oc3ccccc3[n+]2CC)Oc2ccccc21.[I-]` [NK-863], the “Evaluation B: Neurite-outgrowth action” value [1] is reported as “∘ (The test sample with a neurite outgrowth rate of 30% or higher was judged to be equivalent or more (∘) compared with NK-4)”.
`CCN1/C(=C/c2ccc3ccccc3[n+]2CC)C=Cc2ccccc21.[Br-]` [NK-1046] was tested, and the “Evaluation B: Neurite-outgrowth action” value [1] was “∘ (The test sample with a neurite outgrowth rate of 30% or higher was judged to be equivalent or more (∘) compared with NK-4)”.
For `CCN1/C(=C/c2oc3ccccc3[n+]2CC)Sc2ccccc21.[I-]` [NK-1049], the “Evaluation B: Neurite-outgrowth action” value [1] was “∘ (The test sample with a neurite outgrowth rate of 30% or higher was judged to be equivalent or more (∘) compared with NK-4)”.
For `CC[n+]1c(/C=C/c2ccc(N(C)C)cc2)[se]c2ccccc21.[I-]` [NK-1055], the “Evaluation B: Neurite-outgrowth action” value [1] was “∘ (The test sample with a neurite outgrowth rate of 30% or higher was judged to be equivalent or more (∘) compared with NK-4)”.
In the case of `CCN1/C(=C/c2sc3ccccc3[n+]2CC)Sc2ccccc21.[Br-]` [NK-1560], the “Evaluation B: Neurite-outgrowth action” value [1] is reported as “∘ (The test sample with a neurite outgrowth rate of 30% or higher was judged to be equivalent or more (∘) compared with NK-4)”.
For `CN1/C(=C/C2=[N+](C)c3ccccc3C2(C)C)Oc2ccccc21.[I-]` [NK-1684], the “Evaluation B: Neurite-outgrowth action” value [1] was “∘ (The test sample with a neurite outgrowth rate of 30% or higher was judged to be equivalent or more (∘) compared with NK-4)”.
With `CCN1/C(=C/C=C/C=C/c2sc3ccc4ccccc4c3[n+]2CC)Sc2ccc3ccccc3c21.[I-]` [NK-2409] the “Evaluation B: Neurite-outgrowth action” value [1] was “∘ (The test sample with a neurite outgrowth rate of 30% or higher was judged to be equivalent or more (∘) compared with NK-4)”.
For `CCN1/C(=C/C2=CC(=C/C=C/C3=CC(=C/c4sc5ccccc5[n+]4CC)/CC(C)(C)C3)/CC(C)(C)C2)Sc2ccccc21.[O-][Cl+3]([O-])([O-])[O-]` [NK-2545], the “Evaluation B: Neurite-outgrowth action” value [1] was “∘ (The test sample with a neurite outgrowth rate of 30% or higher was judged to be equivalent or more (∘) compared with NK-4)”.
For `CCCCCCCCCCN1C(C)=CS\C1=C/C=C(\C=C\c1scc(C)[n+]1CCCCCCCCCC)c1scc(C)[n+]1CCCCCCCCCC.[I-].[I-]` [NK-2844], the “Percentage (%) of cells” value [1] was 54% and the “Action of enhancing cell growth (%)” value [2, 3] was 399%.
With `CCCCCN1/C(=C/C2=[N+](C)c3ccccc3C2(C)C)C(C)(C)c2ccccc21.[O-][Cl+3]([O-])([O-])[O-]` [NK-3206] the “Evaluation B: Neurite-outgrowth action” value [1] was “∘ (The test sample with a neurite outgrowth rate of 30% or higher was judged to be equivalent or more (∘) compared with NK-4)”.
